Source: patent US9474790B2, “Stable, protracted GLP-1/glucagon receptor co-agonists for medical use” (Novo Nordisk A/S, priority 2013, dated 2016)
Numbered stars: 1 amine (or outer) side, 2 acyl side, 3 side chain; on linkers, the order of the positions; unused ones are H or OH. Bridge positions count the residues as written; N and C are the ends. Square brackets hold non-standard residues; d marks the D form. Side chains are listed from the residue outwards. Peptide text beside a SMILES is read from it. I, II: the chains in the order shown. * marks the point of attachment. C18 diacid = O=C(O)CCCCCCCCCCCCCCCCC(=O)*; γGlu = O=C(O)[C@H](CCC(=O)[*:2])N[*:1]; Ac4c = NC1(C(=O)O)CCC1; AEEA = NCCOCCOCC(=O)O; Aib = CC(C)(N)C(=O)O

biological target: T1, human glucagon receptor (Homo sapiens, UniProt P47871); assay: Glucagon receptor potency, CRE luciferase reporter gene assay in BHK cells; type: cell-based; details: BHK cells expressing human glucagon receptor, read-out: EC50 GlucR
T1 construct: expressed in transfected cells; host or cells: BHK cells (parent BHK570, CRE luciferase clone BHK/KZ10-20-48), clone pLJ6'-4-25
T1 sequence (P47871 26-477): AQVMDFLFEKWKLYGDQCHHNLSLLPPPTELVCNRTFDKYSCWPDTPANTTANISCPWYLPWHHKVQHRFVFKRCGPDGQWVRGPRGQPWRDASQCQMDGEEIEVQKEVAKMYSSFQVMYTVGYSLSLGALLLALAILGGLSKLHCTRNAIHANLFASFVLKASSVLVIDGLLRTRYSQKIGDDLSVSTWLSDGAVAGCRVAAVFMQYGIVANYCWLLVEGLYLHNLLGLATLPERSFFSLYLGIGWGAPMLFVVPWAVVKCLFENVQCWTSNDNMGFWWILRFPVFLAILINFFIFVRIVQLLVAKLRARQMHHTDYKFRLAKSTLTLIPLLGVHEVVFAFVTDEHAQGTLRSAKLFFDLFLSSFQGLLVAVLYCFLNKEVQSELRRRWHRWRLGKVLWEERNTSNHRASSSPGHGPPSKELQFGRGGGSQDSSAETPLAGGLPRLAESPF
Summary of the method: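 Stably transfected BHK cells (BHK570 background) expressing human glucagon receptor with CRE-firefly luciferase reporter, 5×10EE3 cells/well in DMEM/HEPES with 2% ovalbumin and 0.2% Pluronic F-68. Compounds 1×10EE-13 to 1×10EE-6 M final, 3 h at 37 °C; luminescence read, EC50 from four-parameter fit, in pM.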

Structure (SMILES) | EC50
CC(C)C[C@H](NC(=O)[C@H](Cc1ccc(O)cc1)NC(=O)[C@H](CCCCN)NC(=O)[C@H](CO)NC(=O)[C@H](CC(C)C)NC(=O)[C@H](CC(=O)O)NC(=O)[C@H](CO)NC(=O)[C@@H](NC(=O)[C@H](Cc1ccccc1)NC(=O)[C@@H](NC(=O)CNC(=O)[C@H](CCC(N)=O)NC(=O)C(C)(C)NC(=O)[C@@H](N)Cc1c[nH]cn1)[C@@H](C)O)[C@@H](C)O)C(=O)N[C@@H](CCC(=O)O)C(=O)N[C@@H](CO)C(=O)N[C@@H](CCCCN)C(=O)N[C@@H](CCCNC(=N)N)C(=O)N[C@@H](C)C(=O)N[C@@H](CCCNC(=N)N)C(=O)N[C@@H](CCC(=O)O)C(=O)N[C@@H](Cc1ccccc1)C(=O)N[C@H](C(=O)N[C@@H](CCC(N)=O)C(=O)N[C@@H](Cc1c[nH]c2ccccc12)C(=O)N[C@@H](CC(C)C)C(=O)N[C@@H](CC(C)C)C(=O)N[C@@H](CCCCNC(=O)CC[C@H](NC(=O)CC[C@H](NC(=O)[C@H](CO)NC(=O)[C@H](CCC(=O)O)NC(=O)[C@H](CO)NC(=O)CC[C@H](NC(=O)CC[C@H](NC(=O)CCCCCCCCCCCCCCCCC(=O)O)C(=O)O)C(=O)O)C(=O)O)C(=O)O)C(=O)N[C@H](C(N)=O)[C@@H](C)O)C(C)C [Example 54, N^ε28-[(4S)-4-carboxy-4-[[(4S)-4-carboxy-4-[[(2S)-2-[[(2S)-4-carboxy-2-[[(2S)-2-[[(4S)-4-carboxy-4-[[(4S)-4-carboxy-4-(17-carboxyheptadecanoylamino)butanoyl]amino]butanoyl]amino]-3-hydroxypropanoyl]amino]butanoyl]amino]-3-hydroxypropanoyl]amino]butanoyl]amino]butanoyl]-[Aib2,Leu10,Glu15,Lys17,Arg20,Glu21,Leu27,Lys28]-Glucagon amide] (H-H[Aib]QGTFTSDLSKYLESKRAREFVQWLLK([γGlu-γGlu-Ser-Glu-Ser-γGlu-γGlu-C18 diacid])T-NH2; N-terminus assumed) | 0.0127 nM
CC(C)C[C@H](NC(=O)[C@H](Cc1ccc(O)cc1)NC(=O)[C@H](CCCNC(=N)N)NC(=O)[C@H](CO)NC(=O)[C@H](CC(C)C)NC(=O)[C@H](CC(=O)O)NC(=O)[C@H](CO)NC(=O)[C@@H](NC(=O)[C@H](Cc1ccccc1)NC(=O)[C@@H](NC(=O)CNC(=O)[C@H](CCC(N)=O)NC(=O)C1(NC(=O)[C@@H](N)Cc2c[nH]cn2)CCC1)[C@@H](C)O)[C@@H](C)O)C(=O)N[C@@H](CCC(=O)O)C(=O)N[C@@H](CO)C(=O)N[C@@H](CCCNC(=N)N)C(=O)N[C@@H](CCCNC(=N)N)C(=O)N[C@@H](C)C(=O)N[C@@H](CCCNC(=N)N)C(=O)N[C@@H](CCC(=O)O)C(=O)N[C@@H](Cc1ccccc1)C(=O)N[C@H](C(=O)N[C@@H](CCC(N)=O)C(=O)N[C@@H](Cc1c[nH]c2ccccc12)C(=O)N[C@@H](CC(C)C)C(=O)N[C@@H](CC(C)C)C(=O)N[C@@H](CCCCNC(=O)CC[C@H](NC(=O)CC[C@H](NC(=O)COCCOCCNC(=O)COCCOCCNC(=O)CC[C@H](NC(=O)CC[C@H](NC(=O)CCCCCCCCCCCCCCCCC(=O)O)C(=O)O)C(=O)O)C(=O)O)C(=O)O)C(=O)N[C@H](C(N)=O)[C@@H](C)O)C(C)C [Example 59, N^ε28-[(4S)-4-carboxy-4-[[(4S)-4-carboxy-4-[[2-[2-[2-[[2-[2-[2-[[(4S)-4-carboxy-4-[[(4S)-4-carboxy-4-(17-carboxyheptadecanoylamino)butanoyl]amino]butanoyl]amino]ethoxy]ethoxy]acetyl]amino]ethoxy]ethoxy]acetyl]amino]butanoyl]amino]butanoyl]-[Acb2,Leu10,Arg12,Glu15,Arg20,Glu21,Leu27,Lys28]-Glucagon amide] (H-H[Ac4c]QGTFTSDLSRYLESRRAREFVQWLLK([γGlu-γGlu-AEEA-AEEA-γGlu-γGlu-C18 diacid])T-NH2; N-terminus assumed) | 0.017 nM
CC(C)C[C@H](NC(=O)[C@H](Cc1ccc(O)cc1)NC(=O)[C@H](CCCCN)NC(=O)[C@H](CO)NC(=O)[C@H](CC(C)C)NC(=O)[C@H](CC(=O)O)NC(=O)[C@H](CO)NC(=O)[C@@H](NC(=O)[C@H](Cc1ccccc1)NC(=O)[C@@H](NC(=O)CNC(=O)[C@H](CCC(N)=O)NC(=O)C1(NC(=O)[C@@H](N)Cc2c[nH]cn2)CCC1)[C@@H](C)O)[C@@H](C)O)C(=O)N[C@@H](CCC(=O)O)C(=O)N[C@@H](CO)C(=O)N[C@@H](CCCCN)C(=O)N[C@@H](CCCNC(=N)N)C(=O)N[C@@H](C)C(=O)N[C@@H](CCCNC(=N)N)C(=O)N[C@@H](CCC(=O)O)C(=O)N[C@@H](Cc1ccccc1)C(=O)N[C@H](C(=O)N[C@@H](CCC(N)=O)C(=O)N[C@@H](Cc1c[nH]c2ccccc12)C(=O)N[C@@H](CC(C)C)C(=O)N[C@@H](CC(C)C)C(=O)N[C@@H](CCCCNC(=O)CNC(=O)[C@H](CO)NC(=O)[C@H](CCC(=O)O)NC(=O)CNC(=O)[C@H](CO)NC(=O)CC[C@H](NC(=O)CC[C@H](NC(=O)CCCCCCCCCCCCCCCCC(=O)O)C(=O)O)C(=O)O)C(=O)N[C@H](C(N)=O)[C@@H](C)O)C(C)C [Example 36, N^ε28-[2-[[(2S)-2-[[(2S)-4-carboxy-2-[[2-[[(2S)-2-[[(4S)-4-carboxy-4-[[(4S)-4-carboxy-4-(17-carboxyheptadecanoylamino)butanoyl]amino]butanoyl]amino]-3-hydroxypropanoyl]amino]acetyl]amino]butanoyl]amino]-3-hydroxypropanoyl]amino]acetyl]-[Acb2,Leu10,Glu15,Lys17, Arg20,Glu21,Leu27,Lys28]-Glucagon amide] (I: H-H[Ac4c]QGTFTSDLSKYLESKRAREFVQWLLKT-NH2 / II: {C18 diacid-γGlu-γGlu}-SGESG; amide I:28-II:C; N-terminus assumed) | 0.004 nM

Next, values leading:

EC50 | Structure (SMILES)
0.054 nM | CC(C)C[C@H](NC(=O)[C@H](Cc1ccc(O)cc1)NC(=O)[C@H](CCCCN)NC(=O)[C@H](CO)NC(=O)[C@H](CC(C)C)NC(=O)[C@H](CC(=O)O)NC(=O)[C@H](CO)NC(=O)[C@@H](NC(=O)[C@H](Cc1ccccc1)NC(=O)[C@@H](NC(=O)CNC(=O)[C@H](CCC(N)=O)NC(=O)C(C)(C)NC(=O)[C@@H](N)Cc1c[nH]cn1)[C@@H](C)O)[C@@H](C)O)C(=O)N[C@@H](CCC(=O)O)C(=O)N[C@@H](CO)C(=O)N[C@@H](CCCNC(=N)N)C(=O)N[C@@H](CCCNC(=N)N)C(=O)N[C@@H](C)C(=O)N[C@@H](CCCNC(=N)N)C(=O)N[C@@H](CCC(=O)O)C(=O)N[C@@H](Cc1ccccc1)C(=O)N[C@H](C(=O)N[C@@H](CCC(N)=O)C(=O)N[C@@H](Cc1c[nH]c2ccccc12)C(=O)N[C@@H](CC(C)C)C(=O)N[C@@H](CC(C)C)C(=O)N[C@@H](CCCCNC(=O)CC[C@H](NC(=O)CC[C@H](NC(=O)COCCOCCNC(=O)COCCOCCNC(=O)CC[C@H](NC(=O)CC[C@H](NC(=O)CCCCCCCCCCCCCCCCC(=O)O)C(=O)O)C(=O)O)C(=O)O)C(=O)O)C(=O)N[C@H](C(N)=O)[C@@H](C)O)C(C)C [Example 60, N^ε28-[(4S)-4-carboxy-4-[[(4S)-4-carboxy-4-[[2-[2-[2-[[2-[2-[2-[[(4S)-4-carboxy-4-[[(4S)-4-carboxy-4-(17-carboxyheptadecanoylamino)butanoyl]amino]butanoyl]amino]ethoxy]ethoxy]acetyl]amino]ethoxy]ethoxy]acetyl]amino]butanoyl]amino]butanoyl]-[Aib2,Leu10,Glu15,Arg20,Glu21,Leu27,Lys28]-Glucagon amide] (H-H[Aib]QGTFTSDLSKYLESRRAREFVQWLLK([γGlu-γGlu-AEEA-AEEA-γGlu-γGlu-C18 diacid])T-NH2; N-terminus assumed)
0.01 nM | CC(C)C[C@H](NC(=O)[C@H](Cc1ccc(O)cc1)NC(=O)[C@H](CCCCN)NC(=O)[C@H](CO)NC(=O)[C@H](CC(C)C)NC(=O)[C@H](CC(=O)O)NC(=O)[C@H](CO)NC(=O)[C@@H](NC(=O)[C@H](Cc1ccccc1)NC(=O)[C@@H](NC(=O)CNC(=O)[C@H](CCC(N)=O)NC(=O)C(C)(C)NC(=O)[C@@H](N)Cc1c[nH]cn1)[C@@H](C)O)[C@@H](C)O)C(=O)N[C@@H](CCC(=O)O)C(=O)N[C@@H](CO)C(=O)N[C@@H](CCCNC(=N)N)C(=O)N[C@@H](CCCNC(=N)N)C(=O)N[C@@H](C)C(=O)N[C@@H](CCCNC(=N)N)C(=O)N[C@@H](CCC(=O)O)C(=O)N[C@@H](Cc1ccccc1)C(=O)N[C@H](C(=O)N[C@@H](CCC(N)=O)C(=O)N[C@@H](Cc1c[nH]c2ccccc12)C(=O)N[C@@H](CC(C)C)C(=O)N[C@@H](CC(C)C)C(=O)N[C@@H](CCCCNC(=O)CC[C@H](NC(=O)CC[C@H](NC(=O)[C@H](CO)NC(=O)[C@H](CCC(=O)O)NC(=O)[C@H](CO)NC(=O)CC[C@H](NC(=O)CC[C@H](NC(=O)CCCCCCCCCCCCCCCCC(=O)O)C(=O)O)C(=O)O)C(=O)O)C(=O)O)C(=O)N[C@H](C(N)=O)[C@@H](C)O)C(C)C [Example 67, N^ε28-[(4S)-4-carboxy-4-[[(4S)-4-carboxy-4-[[(2S)-2-[[(2S)-4-carboxy-2-[[(2S)-2-[[(4S)-4-carboxy-4-[[(4S)-4-carboxy-4-(17-carboxyheptadecanoylamino)butanoyl]amino]butanoyl]amino]-3-hydroxypropanoyl]amino]butanoyl]amino]-3-hydroxypropanoyl]amino]butanoyl]amino]butanoyl]-[Aib2,Leu10,Glu15,Arg20,Glu21,Leu27,Lys28]-Glucagon amide] (H-H[Aib]QGTFTSDLSKYLESRRAREFVQWLLK([γGlu-γGlu-Ser-Glu-Ser-γGlu-γGlu-C18 diacid])T-NH2; N-terminus assumed)
